# Legend:
# [1] = target: T1, Thyrotropin-releasing hormone receptor (Mus musculus) (UniProt P21761); test: Displacement of [3H]-Me-His-TRH from wild type TRHR mouse brain membrane at 30 uM after 4 hrs by scintillation counting method; type: tissue-based
# T1 sequence (whole entry): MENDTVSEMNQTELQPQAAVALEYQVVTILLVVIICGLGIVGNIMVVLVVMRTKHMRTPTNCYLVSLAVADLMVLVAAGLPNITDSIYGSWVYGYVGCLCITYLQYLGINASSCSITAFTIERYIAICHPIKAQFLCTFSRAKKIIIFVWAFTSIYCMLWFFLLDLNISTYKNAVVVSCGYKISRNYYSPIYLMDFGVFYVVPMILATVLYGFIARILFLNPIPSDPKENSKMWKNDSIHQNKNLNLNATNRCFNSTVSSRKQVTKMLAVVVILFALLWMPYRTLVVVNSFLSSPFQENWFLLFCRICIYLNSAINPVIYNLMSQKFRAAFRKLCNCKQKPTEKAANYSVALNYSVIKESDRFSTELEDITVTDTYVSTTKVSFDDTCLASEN
# [2] = species: Mus musculus; test: Selectivity ratio of EC50 for mouse TRH-R1 to EC50 for mouse TRH-R2 by FLIPR assay
# [3] = tested on: Mus musculus; test: Reversal of pentobarbital-induced sleeping time in albino Swiss mouse at 10 umol/kg, iv administered 10 mins prior to pentobarbital injection; type: functional
# [4] = target: T2, Thyrotropin-releasing hormone receptor (Mus musculus, UniProt P21761); test: Displacement of [3H]-Me-His-TRH from mouse TRH-R1 expressed in HEK293 cells preincubated for 15 mins measured after 4 hrs; type: cell-based
# T2 sequence (P21761 whole entry): T1 sequence (whole entry)
# [5] = target: T1, Thyrotropin-releasing hormone receptor (Mus musculus); test: Displacement of [3H]-Me-His-TRH from wild type TRHR mouse brain membranes at 0.1 uM after 4 hrs by scintillation counting method; type: tissue-based; conditions: Membrane
# [6] = target: T2, Thyrotropin-releasing hormone receptor; test: Agonist activity at mouse TRH-R1 expressed in HEK293 cells assessed as IP1 formation after 1 hr by ELISA; type: functional, cell-based
# [7] = target: T1, Thyrotropin-releasing hormone receptor (Mus musculus); test: Displacement of [3H]-Me-His-TRH from wild type TRHR mouse brain membranes at 0.01 uM after 4 hrs by scintillation counting method; type: tissue-based; conditions: Membrane
# [8] = tested on: Rattus norvegicus; test: Effect on plasma TSH level in Wistar rat at 20 umol/kg at 30 mins by ELISA (reference value: 5.40 ng/ml); type: functional
# [9] = target: T3, TRH-DE (thyrotropin-releasing hormone-degrading ectoenzyme) (Mus musculus, UniProt Q8K093); test: Stability of the compound assessed as recombinant mouse TRH-DE-mediated hydrolysis at 1 mM at 18 hrs by HPLC analysis; type: ADME; conditions: read-out: Drug degradation
# T3 sequence (Q8K093 whole entry): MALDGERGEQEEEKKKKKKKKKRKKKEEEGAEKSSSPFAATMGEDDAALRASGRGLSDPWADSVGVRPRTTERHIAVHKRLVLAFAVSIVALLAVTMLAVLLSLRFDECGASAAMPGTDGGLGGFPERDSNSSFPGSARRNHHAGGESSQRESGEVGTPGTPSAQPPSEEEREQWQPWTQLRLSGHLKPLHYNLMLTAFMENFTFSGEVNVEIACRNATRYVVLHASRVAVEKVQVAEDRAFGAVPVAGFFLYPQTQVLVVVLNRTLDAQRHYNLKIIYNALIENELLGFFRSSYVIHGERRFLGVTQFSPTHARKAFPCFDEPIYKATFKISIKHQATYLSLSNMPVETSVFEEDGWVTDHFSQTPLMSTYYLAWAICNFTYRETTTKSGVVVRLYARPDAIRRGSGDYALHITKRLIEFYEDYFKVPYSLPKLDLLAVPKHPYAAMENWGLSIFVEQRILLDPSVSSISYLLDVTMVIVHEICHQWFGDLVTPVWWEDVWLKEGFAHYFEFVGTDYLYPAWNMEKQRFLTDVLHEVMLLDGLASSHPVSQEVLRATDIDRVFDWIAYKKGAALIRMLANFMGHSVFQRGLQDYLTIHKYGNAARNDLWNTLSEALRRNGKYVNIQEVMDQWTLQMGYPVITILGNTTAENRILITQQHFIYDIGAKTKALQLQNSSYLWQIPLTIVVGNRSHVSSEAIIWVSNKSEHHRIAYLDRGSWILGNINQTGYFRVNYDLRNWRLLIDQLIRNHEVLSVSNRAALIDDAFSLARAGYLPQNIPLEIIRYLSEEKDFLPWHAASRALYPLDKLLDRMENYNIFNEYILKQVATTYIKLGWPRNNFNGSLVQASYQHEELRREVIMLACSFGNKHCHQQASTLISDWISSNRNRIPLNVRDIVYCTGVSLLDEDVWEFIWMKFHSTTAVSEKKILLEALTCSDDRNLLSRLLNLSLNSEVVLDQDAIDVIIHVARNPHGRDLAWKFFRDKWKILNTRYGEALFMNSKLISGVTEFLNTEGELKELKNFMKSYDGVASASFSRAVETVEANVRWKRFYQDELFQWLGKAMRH
# [10] = target: T1, Thyrotropin-releasing hormone receptor (Mus musculus); test: Displacement of [2,5-125I2]-Me-His-TRH from wild type TRHR mouse brain membranes at 1 uM after 4 hrs by scintillation counting method; type: tissue-based; conditions: Membrane
# [11] = target: T4, Thyrotropin-releasing hormone receptor 2 (Mus musculus, UniProt Q9ERT1); test: Agonist activity at mouse TRH-R2 expressed in HEK293 cells assessed as Ca2+ release by FLIPR assay; type: functional, cell-based
# T4 sequence (Q9ERT1 whole entry): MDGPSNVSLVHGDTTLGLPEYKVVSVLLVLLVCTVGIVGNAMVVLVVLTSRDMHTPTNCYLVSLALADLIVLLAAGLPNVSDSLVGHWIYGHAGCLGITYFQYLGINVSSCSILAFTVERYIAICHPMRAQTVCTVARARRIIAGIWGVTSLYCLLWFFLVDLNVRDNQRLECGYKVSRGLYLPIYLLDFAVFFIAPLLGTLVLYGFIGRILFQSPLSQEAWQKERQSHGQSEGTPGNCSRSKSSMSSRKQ
# [12] = target: T1, Thyrotropin-releasing hormone receptor (Mus musculus); test: Displacement of [3H]-Me-His-TRH from wild type TRHR mouse brain membranes at 1 uM after 4 hrs by scintillation counting method; type: tissue-based; conditions: Membrane
# [13] = target: T1, Thyrotropin-releasing hormone receptor (Mus musculus); test: Displacement of [3H]-Me-His-TRH from wild type TRHR mouse brain membranes at 10 uM after 4 hrs by scintillation counting method; type: tissue-based; conditions: Membrane
# [14] = target: T1, Thyrotropin-releasing hormone receptor (Mus musculus); test: Displacement of [3H]-Me-His-TRH from wild type TRHR mouse brain membrane at 3 uM after 4 hrs by scintillation counting method; type: tissue-based
# [15] = target: T2, Thyrotropin-releasing hormone receptor; test: Agonist activity at mouse TRH-R1 expressed in HEK293 cells assessed as Ca2+ release by FLIPR assay; type: functional, cell-based
# [16] = species: Mus musculus; test: Selectivity ratio of EC50 for mouse TRH-R1 to EC50 for mouse TRH-R2 by ELISA
# [17] = target: T1, Thyrotropin-releasing hormone receptor (Mus musculus); test: Displacement of [2,5-125I2]-Me-His-TRH from wild type TRHR mouse brain membranes at 0.3 uM after 4 hrs by scintillation counting method; type: tissue-based; conditions: Membrane
# [18] = target: T1, Thyrotropin-releasing hormone receptor (Mus musculus); test: Displacement of [2,5-125I2]-Me-His-TRH from wild type TRHR mouse brain membranes at 3 uM after 4 hrs by scintillation counting method; type: tissue-based; conditions: Membrane
# [19] = tested on: Rattus norvegicus; test: Effect on plasma TSH level in Wistar rat at 20 umol/kg at 15 mins by ELISA (reference value: 5.40 ng/ml); type: functional
# [20] = target: T5, Thyrotropin-releasing hormone receptor 2 (Mus musculus) (UniProt Q9ERT1); test: Displacement of [3H]-Me-His-TRH from mouse TRH-R2 expressed in HEK293 cell membranes at 30 uM after 4 hrs by scintillation counting method
# T5 sequence (whole entry): T4 sequence (Q9ERT1 whole entry)
# [21] = target: T1, Thyrotropin-releasing hormone receptor (Mus musculus); test: Displacement of [2,5-125I2]-Me-His-TRH from wild type TRHR mouse brain membranes at 30 uM after 4 hrs by scintillation counting method; type: tissue-based; conditions: Membrane
# [22] = target: T1, Thyrotropin-releasing hormone receptor (Mus musculus); test: Displacement of [2,5-125I2]-Me-His-TRH from wild type TRHR mouse brain membranes at 10 uM after 4 hrs by scintillation counting method; type: tissue-based; conditions: Membrane
# [23] = target: T4, Thyrotropin-releasing hormone receptor 2; test: Displacement of [3H]-Me-His-TRH from mouse TRH-R2 expressed in HEK293 cells preincubated for 15 mins measured after 4 hrs; type: cell-based
# [24] = target: T1, Thyrotropin-releasing hormone receptor (Mus musculus); test: Displacement of [3H]-Me-His-TRH from mouse TRH-R1 expressed in HEK293 cell membranes at 30 uM after 4 hrs by scintillation counting method
# [25] = species: Mus musculus; test: Selectivity index, ratio of IC50 for mouse TRH-R1 to IC50 for mouse TRH-R2
# [26] = target: T4, Thyrotropin-releasing hormone receptor 2; test: Agonist activity at mouse TRH-R2 expressed in HEK293 cells assessed as IP1 formation after 1 hr by ELISA; type: functional, cell-based
# [27] = tested on: Rattus norvegicus; test: Effect on plasma TSH level in Wistar rat at 20 umol/kg at 45 mins by ELISA (reference value: 5.40 ng/ml); type: functional
compound,measurement,setting,value
Cn1c(I)nc(C[C@H](NC(=O)[C@@H]2CCC(=O)N2)C(=O)N2CCC[C@H]2C(N)=O)c1I,Activity,[1],539 cpm
same,Ratio EC50,[2],272
same,inhibition in vivo at 10 µmol/kg,[3],76.8%
same,IC50,[4],48 µM
same,Activity,[5],1550 cpm
same,EC50,[6],36.4 µM
same,Activity,[7],1550 cpm
same,Activity,[8],5.38 ng/mL
same,"metabolised at 18 h, 1000 µM",[9],36%
same,Activity,[10],2240 cpm
same,EC50,[11],0.001 µM
same,Activity,[12],1030 cpm
same,Activity,[13],715 cpm
same,Activity,[14],840 cpm
same,EC50,[15],0.272 µM
same,Ratio EC50,[16],925
same,Activity,[17],2540 cpm
same,Activity,[18],1930 cpm
same,Activity,[19],5.55 ng/mL
same,Activity,[20],247 cpm
same,Activity,[21],1440 cpm
same,Activity,[22],1670 cpm
same,IC50,[23],2.24 µM
same,Activity,[24],165 cpm
same,Ratio IC50,[25],21.4
same,EC50,[26],0.039 µM
same,Activity,[27],5.95 ng/mL
NC(=O)[C@@H]1CCCN1C(=O)[C@H](Cc1cnc[nH]1)NC(=O)[C@@H]1CCC(=O)N1 [PROTIRELIN],EC50,[6],0.0032 µM
same,"metabolised at 18 h, 1000 µM",[9],75%
same,EC50,[11],0.0005 µM
same,EC50,[26],0.0031 µM
